According to patent US20100105948A1, “HOP ALPHA ACID OR HOP OIL CONTENT ENHANCER” (COSMO OIL CO., LTD., priority 2007, published 2010):

Columns and labels:
[1] = tested on: hop (Zatecky poloskory cervenak); assay: Foliar treatment of hop seedlings (Example 1): contents of alpha acid, beta acid, hop oils; dry weight; assay type: in vivo; details: for (Reference) Dry weight / Beta acid (%) / Hop oil myrcene / Hop oil pharnesene / Alpha acid (%) / (Reference) Dry weight, ratio to no treatment / Alpha acid (ratio to no treatment) / Beta acid (ratio to no treatment) / Hop oil myrcene (ratio to no treatment) / Hop oil pharnesene (ratio to no treatment): foliar treatment 5 times; for Alpha acid (%): Zatecky poloskory cervenak; for (Reference) Dry weight, ratio to no treatment / Alpha acid (ratio to no treatment) / Beta acid (ratio to no treatment) / Hop oil myrcene (ratio to no treatment) / Hop oil pharnesene (ratio to no treatment): no treatment = 100
Source text: Seedlings of Zatecky poloskory cervenak cultivated by conventional method in Slovakia in 2006 were subjected to foliar treatment at timing shown in Table 1 with an aqueous 5-aminolevulinic acid (ALA) hydrochloride solution shown in Table 2.

[2] = tested on: hop (high alpha acid type Marynka species); assay: Foliar treatment of hop seedlings (Example 2): alpha acid content; yield; assay type: in vivo; details: for Alpha acid (%): Marynka; for (Reference) Yield (ratio to no treatment %) / Alpha acid (ratio to no treatment): no treatment = 100
Source text: Seedlings of a high alpha acid type Marynka species cultivated by conventional method in Poland in 2006 were subjected to foliar treatment at timing shown in Table 4 with an aqueous ALA hydrochloride solution the same as in Example 1.

[3] = Treatment 1 (basal fertilizer 30% up): 0.05%, 1000 L/ha, 6 times
[4] = Treatment 1: 0.05%, 1000 L/ha, 6 times
[5] = Treatment 2: 0.05%, 1000, 2000, 3000 L/ha at 1st, 3rd, 5th time

With `NCC(=O)CCC(=O)O` [ALA, 5-aminolevulinic acid] the “contents of an alpha acid, a beta acid, and hop oils” value ([1]; ALA treatment versus no treatment, Table 3, in words) was “remarkably increased”, the “(Reference) Dry weight” value ([1]; 0.02%, 2500 L/ha) was 1.76 t/ha and the “Beta acid (%)” value ([1]; 0.02%, 2500 L/ha) was 4.62%. The Hop oil myrcene ([1]; 0.02%, 2500 L/ha) was 51.6, the Hop oil pharnesene ([1]; 0.02%, 2500 L/ha) was 19.9 and the “Alpha acid (%)” value ([1]; 0.02%, 2500 L/ha) was 3.26%. The “(Reference) Dry weight, ratio to no treatment” value ([1]; 0.02%, 2500 L/ha) was 125%, the “Alpha acid (ratio to no treatment)” value ([1]; 0.02%, 2500 L/ha) was 127 and the “Beta acid (ratio to no treatment)” value ([1]; 0.02%, 2500 L/ha) was 105. The “Hop oil myrcene (ratio to no treatment)” value ([1]; 0.02%, 2500 L/ha) was 149, the “Hop oil pharnesene (ratio to no treatment)” value ([1]; 0.02%, 2500 L/ha) was 121 and the “(Reference) Dry weight” value ([1]; 0.1%, 500 L/ha) was 1.44 t/ha. The “Beta acid (%)” value ([1]; 0.1%, 500 L/ha) was 4.95%, the Hop oil myrcene ([1]; 0.1%, 500 L/ha) was 57.0 and the Hop oil pharnesene ([1]; 0.1%, 500 L/ha) was 17.6. For the same compound, the “Alpha acid (%)” value ([1]; 0.1%, 500 L/ha) was 3.11%, the “(Reference) Dry weight, ratio to no treatment” value ([1]; 0.1%, 500 L/ha) was 103% and the “Alpha acid (ratio to no treatment)” value ([1]; 0.1%, 500 L/ha) was 121. The “Beta acid (ratio to no treatment)” value ([1]; 0.1%, 500 L/ha) was 113, the “Hop oil myrcene (ratio to no treatment)” value ([1]; 0.1%, 500 L/ha) was 164 and the “Hop oil pharnesene (ratio to no treatment)” value ([1]; 0.1%, 500 L/ha) was 107. The “content of an alpha acid” value ([2]; ALA treatment versus no treatment, Table 5, in words) was “remarkably increased”, the “(Reference) Yield (kg/ha)” value [2, 3] was 1610 kg/ha and the “Alpha acid (%)” value [2, 3] was 6.98%. For the same compound, the “(Reference) Yield (ratio to no treatment %)” value [2, 3] was “(104) %”, the “Alpha acid (ratio to no treatment)” value [2, 3] was “(104)” and the “(Reference) Yield (kg/ha)” value [2, 4] was 1609 kg/ha. The “Alpha acid (%)” value [2, 4] was 6.82%, the “(Reference) Yield (ratio to no treatment %)” value [2, 4] was “(104) %” and the “Alpha acid (ratio to no treatment)” value [2, 4] was “(102)”. For the same compound, the “(Reference) Yield (kg/ha)” value [2, 5] was 1610 kg/ha, the “Alpha acid (%)” value [2, 5] was 6.95% and the “(Reference) Yield (ratio to no treatment %)” value [2, 5] was “(104) %”. For the same compound, the “Alpha acid (ratio to no treatment)” value [2, 5] was “(104)”.
